Structures are written as SMILES. Like-named read-outs stand apart in the source and are kept apart here.

We go through two molecules from publication PMC10384862, “[^212Pb]Pb-eSOMA-01: A Promising Radioligand for Targeted Alpha Therapy of Neuroendocrine Tumors” (Pharmaceuticals, 2023).

Series [1] can be described thus: In vitro stability in PBS. The class given is physicochemical. The following applies: 37 °C, n = 1. The method, then: The ^203Pb-labeled compounds (~ 2 MBq) or the ^212Pb-labeled compounds (~ 70 kBq) were incubated in 300 µL of phosphate buffered saline (PBS; 0.1 M, pH 7.4) or mouse serum at 37 °C. The stability of the radiolabeled peptides was monitored at 1, 4, and 24 h post-incubation. The samples in PBS were directly analyzed by radio-HPLC without any pretreatment. However, samples of mouse serum were mixed with an equal volume of acetonitrile to precipitate the proteins. The solution was centrifuged twice for 5 min at 13,000 rpm, and the supernatant was analyzed by radio-HPLC using Method 1 for lead-203 and Method 2 for lead-212.

Series [2] can be described thus: LogD7.4 by shake-flask method (n-octanol/PBS). The note with it: ^203Pb-labeled compound; n-octanol/PBS pH 7.4; n = 3. The class given is physicochemical. On the procedure: Distribution coefficients (LogD7.4) were determined by the shake-flask method. A sample containing the ^203Pb-labeled compound (~1 MBq) was added to a vial containing PBS (600 µL, pH 7.4) and n-octanol (600 µL). The vial was vortexed vigorously and then centrifuged at 10,000 rpm for 10 min for phase separation. Samples (100 µL) of the n-octanol and aqueous phases were taken and measured by a gamma counter. The LogD7.4 value was calculated by using the equation: LogD7.4 = log [(counts in the n-octanol phase)/(counts in the aqueous phase)]. Measurements were performed in triplicate.

In series [3] the test system is H69-xenograft Balb/c nu/nu mice. Kind of series: Biodistribution study with lead-212. It counts as in vivo, mouse. The note with it: 1 h p.i.; n = 4. The method, then:
(§1) Six-week-old male Balb/c nu/nu-specific and opportunistic pathogen-tree (SOPF) mice (Janvier Labs, Le Genest-Saint-Isle, France) were housed in individually ventilated cages, with four mice per cage. Upon arrival, the mice were acclimated for 1 week with access to food and water ad libitum. Mice were subcutaneously inoculated on the right shoulder with NCI-H69 cells (5 × 10^6 cells suspended in 100 μL of 1/3 Matrigel (Corning Inc.; Corning, NY, USA) and 2/3 Hank’s balanced salt solution (Gibco; Paisley, UK). NCI-H69 xenografts were allowed to grow for 3 weeks. Tumor sizes were 391 ± 173 mm^3 at the start of the studies.
(§2) Biodistribution studies were performed to determine tumor and organ uptake of [^212Pb]Pb-DOTAM-TATE, [^212Pb]Pb-eSOMA-01, and [^212Pb]Pb-eSOMA-02. Animals (n = 4 for each time point) were injected intravenously (i.v.) with an average of 100 kBq/0.5 nmol. At 3 selected time points (1, 4, and 24 h) p.i., blood was collected via retro-orbital puncture under isoflurane/O2 anesthesia, after which the mice were sacrificed via cervical dislocation. The tumor and organs of interest (heart, lungs, liver, spleen, stomach, large intestine, small intestine, pancreas, kidneys, muscle, skin, and bone) were excised, washed in PBS, and blotted dry. To confirm receptor specificity of radioligand uptake, mice (n = 3) were co-injected with an excess (25 nmol) of the respective unlabeled peptide, and uptake in the organs of interest was determined at 24 h p.i. To determine the total injected radioactivity per animal, a calibration curve with lead-212 was established using the gamma counter. The percentage of injected dose per gram (% ID/g) was determined for each tissue sample and corrected for both the injected volume and the % ID present at the injection site (the tail).

A short description of series [4]: Biodistribution study with lead-212. It counts as in vivo, mouse. The note with it: mouse, intravenous; for tissue uptake at 1 h: 1 h p.i.; for tissue uptake at 4 h: 4 h p.i. On the procedure: as §1, §2
Setting [5] is: blood, 100 kBq, n = 4, read-out: Blood uptake.
The mark [6] stands for this setting: intestines, 100 kBq, n = 4, read-out: Intestines uptake.
Where [7] appears, read: kidneys, 100 kBq, n = 4, read-out: Kidneys uptake.
Setting [8] is: liver, 100 kBq, n = 4, read-out: Liver uptake.
Setting [9] is: lungs, 100 kBq, n = 4, read-out: Lungs uptake.
Where [10] appears, read: pancreas, 100 kBq, n = 4, read-out: Pancreas uptake.
[11] abbreviates: spleen, 100 kBq, n = 4, read-out: Spleen uptake.
The mark [12] stands for this setting: stomach, 100 kBq, n = 4, read-out: Stomach uptake.
[13] abbreviates: tumor, 100 kBq, n = 4, read-out: Tumor uptake.

On to `C[C@@H](O)[C@H](NC(=O)[C@@H]1CSSC[C@H](NC(=O)[C@@H](Cc2ccccc2)NC(=S)Nc2ccc(CC3CN(CC(N)=O)CCN(CC(N)=O)CCN(CC(N)=O)CCN3CC(N)=O)cc2)C(=O)N[C@@H](Cc2ccc(O)cc2)C(=O)N[C@H](Cc2c[nH]c3ccccc23)C(=O)N[C@@H](CCCCN)C(=O)N[C@@H]([C@@H](C)O)C(=O)N1)C(=O)O` (stereo partly drawn) [[^203Pb]Pb-eSOMA-03, metal not drawn], for which the “Stability in PBS, intact labeled ligand” value in series [1] (^203Pb-labeled, 1 h) turned out to be 70%; in series [1] (^203Pb-labeled, 4 h), 40%; in series [1] (^203Pb-labeled, 24 h) it was 15%. For the same molecule, the remaining at 1 h in series [1] (phosphate buffered saline, pH 7.4, ^203Pb-labeled, 1 h, read-out: Stability in PBS, intact labeled ligand) came to 70%. The remaining at 24 h in series [1] (phosphate buffered saline, pH 7.4, ^203Pb-labeled, 24 h, read-out: Stability in PBS, intact labeled ligand) was 15%. In addition, in series [2], the log distribution coefficient (logD) (in general, lipophilicity at a set pH, counting ionised and neutral species) is -1.36 ± 0.06.

`C[C@@H](O)[C@H](NC(=O)[C@@H]1CSSC[C@H](NC(=O)[C@@H](Cc2ccccc2)NC(=O)CN2CCC(NC(=O)CN3CCN(CC(N)=O)CCN(CC(N)=O)CCN(CC(N)=O)CC3)CC2)C(=O)N[C@@H](Cc2ccc(O)cc2)C(=O)N[C@H](Cc2c[nH]c3ccccc23)C(=O)N[C@@H](CCCCN)C(=O)N[C@@H]([C@@H](C)O)C(=O)N1)C(=O)O` [[^212Pb]Pb-eSOMA-02, metal not drawn]: the Stomach uptake in series [3] turned out to be 3.7 % ID/g. The tissue uptake at 1 h in series [4] (setting [5]) was 1.44 ± 0.24 %ID/g; in series [4] (heart, 100 kBq, n = 4, read-out: Heart uptake), 0.54 ± 0.21 %ID/g; in series [4] (setting [6]), 2.24 ± 1.05 %ID/g; in series [4] (setting [7]), 81.1 ± 14.3 %ID/g; in series [4] (setting [8]), 3.96 ± 0.37 %ID/g; in series [4] (setting [9]) it was 3.49 ± 0.7 %ID/g. The tissue uptake at 1 h turned out to be 6.41 ± 0.7 %ID/g in series [4] (setting [10]), 0.59 ± 0.06 %ID/g in series [4] (setting [11]), 3.74 ± 0.66 %ID/g in series [4] (setting [12]) and 7.93 ± 2.14 %ID/g in series [4] (setting [13]). Besides, the tissue uptake at 4 h in series [4] (setting [5]) was found to be 0.01 ± 0.02 %ID/g; in series [4] (bone, 100 kBq, n = 4, read-out: Bones uptake) it was 0.03 ± 0.05 %ID/g; in series [4] (setting [6]), 0.67 ± 0.21 %ID/g; in series [4] (setting [7]), 50.5 ± 3.24 %ID/g; in series [4] (setting [8]), 3.09 ± 0.7 %ID/g; in series [4] (setting [9]) it was 0.99 ± 0.24 %ID/g. Moreover, the tissue uptake at 4 h amounted to 1.25 ± 0.27 %ID/g in series [4] (setting [10]); 0.25 ± 0.33 %ID/g in series [4] (skin, 100 kBq, n = 4, read-out: Skin uptake); 0.39 ± 0.27 %ID/g in series [4] (setting [11]); 1.17 ± 0.35 %ID/g in series [4] (setting [12]); 7.45 ± 0.29 %ID/g in series [4] (setting [13]). The tissue uptake at 24 h in series [4] (intestines, 100 kBq, 24 h p.i., n = 4, read-out: Intestines uptake) worked out at 0.13 ± 0.09 %ID/g; in series [4] (intestines, 24 h block: co-injection of excess (25 nmol) unlabeled peptide, read-out: Intestines uptake), 0.03 ± 0.03 %ID/g; in series [4] (kidneys, 100 kBq, 24 h p.i., n = 4, read-out: Kidneys uptake), 28.2 ± 9.41 %ID/g; in series [4] (kidneys, 24 h block: co-injection of excess (25 nmol) unlabeled peptide, read-out: Kidneys uptake), 37.9 ± 9.17 %ID/g; in series [4] (liver, 100 kBq, 24 h p.i., n = 4, read-out: Liver uptake), 1.44 ± 0.94 %ID/g; in series [4] (liver, 24 h block: co-injection of excess (25 nmol) unlabeled peptide, read-out: Liver uptake) it was 0.83 ± 0.87 %ID/g. Besides, the tissue uptake at 24 h in series [4] (lungs, 100 kBq, 24 h p.i., n = 4, read-out: Lungs uptake) is 0.2 ± 0.21 %ID/g; in series [4] (pancreas, 100 kBq, 24 h p.i., n = 4, read-out: Pancreas uptake), 0.41 ± 0.37 %ID/g; in series [4] (stomach, 100 kBq, 24 h p.i., n = 4, read-out: Stomach uptake) it was 0.36 ± 0.27 %ID/g; in series [4] (stomach, 24 h block: co-injection of excess (25 nmol) unlabeled peptide, read-out: Stomach uptake) it was 0.14 ± 0.28 %ID/g; in series [4] (tumor, 100 kBq, 24 h p.i., n = 4, read-out: Tumor uptake), 1.02 ± 0.09 %ID/g. Also, the “Stability in PBS, intact labeled ligand” value in series [1] (^212Pb-labeled, 1 h) was determined as 97%; in series [1] (^212Pb-labeled, 4 h), 95%; in series [1] (^212Pb-labeled, 24 h) it was 95%.
